Experiments:
colon cell lines = test: NCI Anticancer Screen growth inhibition; format: cell-based; settings: 2 day exposure; mean±s.e.m., n = 7 colon cell lines
From the text: (n = 6, paired Student’s t test, p = 0.02, Table S1). […] Finally, in a representative SC-1 sensitive tumor line (HCT-116), there was no difference in the distribution of the SC-1 treated cell population across the cell cycle compared to control treated cells (Figure S4).

CHK2 = CHK2 (Homo sapiens, UniProt O96017); test: In vitro kinase inhibition assay (same assay as RSK2); format: biochemical
Method: (§1) RSK2 (90 kD ribosomal S6 kinase), a kinase with both a N- and C-terminal functional domains, phosphorylates multiple targets and is phosphorylated by ERK1/2, another SC-1 target. As a downstream effector, RSK2 signals many cellular behaviors including cell survival, growth, proliferation, and migration. […] Potential inhibitory activity of SC-1 on a random selection of other protein kinases (Aurora kinase B, CHK1, and CHK2) was also evaluated in the same assay and no effect was found (Figure 4A). To determine if activity of related (to RSK2) protein kinases in the AGC kinase family was inhibited by SC-1, further studies were conducted (Table 3). […] Because SC-1 inhibited these selected kinases in the micromolar range and the kinase assay is distinct from the one reporting data in Figure 4A, the positive EC50 value for Abl1 kinase was reported in Table 3 as well. These findings were consistent with predictions reported by Okram et al..
(§2) The RSK2 in vitro kinase inhibition assay utilized was a modification of protocols established by Nguyen et al.. Additional protocols that confirmed the results depicted in Figure 4 and evaluated kinase inhibitory activity in a random selection of protein kinases (Table 3) were conducted at Reaction Biology Corporation (Malvern, PA). This was a miniaturized ^33P-based screening assay.

CHK1 = CHK1 (Homo sapiens, UniProt O14757); test: as above; format: biochemical
Method: as §1, §2

Aurora kinase B = Aurora kinase B (Homo sapiens, UniProt Q96GD4); test: as above; format: biochemical
Method: as §1, §2

KM12 = test: Cell growth after five day exposure; format: cell-based; settings: 0.1 µM added day 1, harvested 5 days later
Method: (§3) Five day exposures were conducted.

HT29 [1] = test: Cell growth after five day exposure; format: cell-based; settings: 0.1 µM added day 1, harvested 5 days later
Method: as §3

HCC-2998 = test: Cell growth after five day exposure; format: cell-based; settings: 0.1 µM added day 1, harvested 5 days later
Method: as §3

HCT-15 = test: Cell growth after five day exposure; format: cell-based; settings: 0.1 µM added day 1, harvested 5 days later
Method: as §3

SW-620 [2] = test: Cell growth after five day exposure; format: cell-based; settings: 0.1 µM added day 1, harvested 5 days later
Method: as §3

HCT-116 [3] = test: Cell growth after five day exposure; format: cell-based; settings: 0.1 µM added day 1, harvested 5 days later
Method: as §3

COLO 205 = test: Cell growth after five day exposure; format: cell-based; settings: 0.1 µM added day 1, harvested 5 days later
Method: as §3

HT29 [4] = test: FACS analysis of putative CSC surface markers; format: cell-based; design: key to Change in Surface Marker Expression: Y indicates increased putative surface marker expression using the panel of 6 antibodies described in the Material and Methods
From the text: (§4) A BD FACsAria (BD Biosciences, San Jose, CA) was utilized for FACS analysis according to standard procedures. The instrument was equipped with a 488 nm 100 mW blue laser, a 638 nm 30 mW red laser, and a 405 nm 50 mW violet laser. The software package Diva 5.0 (BD Biosciences) was used for collection and analysis of data. The alignment of the three lasers in the flow cell was verified prior to running tumor cell samples by running Rainbow Beads (Spherotech). The six colors being used in the analysis were then compensated to account for spectral overlap emitted by the fluorochromes within each laser as well as across the lasers using a semi-automated process. This was done using compensation beads (BD Biosciences) that were coated with anti-mouse antibodies. The beads were incubated with each individual antibody used in the six-color panel for 15 min at room temperature. An unstained tube was also prepared. The unstained beads along with beads stained for each fluorochrome were run individually, recording 5000 events. The data was then run through the Diva software compensation matrices and the amount of “spectral bleed” from other fluorochromes into the fluorochrome of interest’s channel was determined and automatically compensated.
(§5) Treated and untreated cells (1×10^6 cells/condition) were harvested with trypsin EDTA (Invitrogen), washed, and then labeled with a six antibody cocktail (antibodies against the following epitopes: CD44, CD24, CD133, CD326, CD166, and P-glycoprotein in PBS without calcium and magnesium supplemented with 2% FBS) or appropriate isotype control antibodies. An unstained control was also prepared. The specific amounts needed for each labeled antibody were determined through titration studies. All cells were incubated with antibody for 15 minutes on ice and in the dark. The cells were then washed, resuspended in buffer, and analyzed on the FACsAria. For each experimental condition, the isotype control tube was evaluated first and 10,000 events were collected. Forward vs. side scatter gates were then established to eliminate likely debris. Further gating was determined for each conjugated isotype control antibody such that 1% of the population was considered a positive staining event. Cells stained with specific labeled antibodies were then evaluated and 10,000 events collected.

SW-620 [5] = test: FACS analysis of putative CSC surface markers; format: cell-based; design: key to Change in Surface Marker Expression: Y indicates increased putative surface marker expression using the panel of 6 antibodies described in the Material and Methods
From the text: as §4, §5

HCT-116 [6] = test: FACS analysis of putative CSC surface markers; format: cell-based; design: key to Change in Surface Marker Expression: Y indicates increased putative surface marker expression using the panel of 6 antibodies described in the Material and Methods
From the text: as §4, §5

RSK1 = target: T1, RSK1 (Homo sapiens, UniProt Q15418); test: Miniaturized 33P-based kinase screening assay; format: biochemical; settings: max 10 µM, 3-fold serial dilution, n = 2
T1 construct: purchased Reaction Biology Corporation (Malvern, PA), contract assay
Method: as §2

PLK2 = target: T2, PLK2 (Homo sapiens, UniProt Q9NYY3); test: Miniaturized 33P-based kinase screening assay; format: biochemical; settings: max 10 µM, 3-fold serial dilution, n = 2
T2 construct: purchased Reaction Biology Corporation (Malvern, PA), contract assay
Method: as §2

p70S6K = target: T3, p70S6K (Homo sapiens, UniProt P23443); test: Miniaturized 33P-based kinase screening assay; format: biochemical; settings: max 10 µM, 3-fold serial dilution, n = 2
T3 construct: purchased Reaction Biology Corporation (Malvern, PA), contract assay
Method: as §2

RSK4 = target: T4, RSK4 (Homo sapiens, UniProt Q9UK32); test: Miniaturized 33P-based kinase screening assay; format: biochemical; settings: max 10 µM, 3-fold serial dilution, n = 2
T4 construct: purchased Reaction Biology Corporation (Malvern, PA), contract assay
Method: as §2

PIM1 = target: T5, PIM1 (Homo sapiens, UniProt P11309); test: Miniaturized 33P-based kinase screening assay; format: biochemical; settings: max 10 µM, 3-fold serial dilution, n = 2
T5 construct: purchased Reaction Biology Corporation (Malvern, PA), contract assay
Method: as §2

RSK3 = target: T6, RSK3 (Homo sapiens, UniProt Q15349); test: Miniaturized 33P-based kinase screening assay; format: biochemical; settings: max 10 µM, 3-fold serial dilution, n = 2
T6 construct: purchased Reaction Biology Corporation (Malvern, PA), contract assay
Method: as §2

Abl1 = target: T7, Abl1 (Homo sapiens, UniProt P00519); test: Miniaturized 33P-based kinase screening assay; format: biochemical; settings: max 10 µM, 3-fold serial dilution, n = 2
T7 construct: purchased Reaction Biology Corporation (Malvern, PA), contract assay
Method: as §2

RSK2 = RSK2 (Homo sapiens, UniProt P51812); test: Miniaturized 33P-based kinase screening assay; format: biochemical; settings: max 10 µM, 3-fold serial dilution, n = 2
Method: as §2

[7] = five days of SC-1 treatment, mean±s.e.m., n = 3

Chain of CHK2 (O96017 whole entry, species assumed, the tested form may be a part): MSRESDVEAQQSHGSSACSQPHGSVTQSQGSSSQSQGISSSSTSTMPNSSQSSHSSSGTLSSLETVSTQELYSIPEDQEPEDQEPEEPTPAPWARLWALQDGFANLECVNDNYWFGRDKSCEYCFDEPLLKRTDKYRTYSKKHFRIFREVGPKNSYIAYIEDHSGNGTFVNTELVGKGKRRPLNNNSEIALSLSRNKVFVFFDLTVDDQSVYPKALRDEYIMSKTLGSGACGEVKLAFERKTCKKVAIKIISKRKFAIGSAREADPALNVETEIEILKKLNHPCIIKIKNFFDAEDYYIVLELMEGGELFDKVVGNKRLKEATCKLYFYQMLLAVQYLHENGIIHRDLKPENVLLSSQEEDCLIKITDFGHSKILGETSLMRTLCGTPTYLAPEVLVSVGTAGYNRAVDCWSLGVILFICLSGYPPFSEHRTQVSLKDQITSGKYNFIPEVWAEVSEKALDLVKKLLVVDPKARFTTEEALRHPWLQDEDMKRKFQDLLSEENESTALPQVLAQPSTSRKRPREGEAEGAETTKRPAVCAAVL
T6 sequence (Q15349 whole entry): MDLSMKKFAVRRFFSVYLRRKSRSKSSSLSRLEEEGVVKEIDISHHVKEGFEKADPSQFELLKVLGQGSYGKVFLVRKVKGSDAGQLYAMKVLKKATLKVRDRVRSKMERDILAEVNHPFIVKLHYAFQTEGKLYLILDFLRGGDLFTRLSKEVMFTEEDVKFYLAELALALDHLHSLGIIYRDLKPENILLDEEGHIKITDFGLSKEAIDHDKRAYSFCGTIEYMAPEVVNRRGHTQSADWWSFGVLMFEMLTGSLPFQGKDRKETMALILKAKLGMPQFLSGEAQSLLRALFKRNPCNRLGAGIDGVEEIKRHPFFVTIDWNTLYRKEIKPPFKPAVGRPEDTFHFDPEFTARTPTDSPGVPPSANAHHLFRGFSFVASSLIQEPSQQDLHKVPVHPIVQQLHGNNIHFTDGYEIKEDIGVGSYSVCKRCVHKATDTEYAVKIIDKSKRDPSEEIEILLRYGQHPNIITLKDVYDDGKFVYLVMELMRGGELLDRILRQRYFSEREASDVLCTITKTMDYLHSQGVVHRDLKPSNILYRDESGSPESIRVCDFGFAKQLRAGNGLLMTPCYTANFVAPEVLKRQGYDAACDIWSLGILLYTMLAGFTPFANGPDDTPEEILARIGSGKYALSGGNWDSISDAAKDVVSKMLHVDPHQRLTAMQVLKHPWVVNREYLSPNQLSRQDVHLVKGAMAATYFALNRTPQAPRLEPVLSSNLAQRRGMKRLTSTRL
Chain of RSK2 (P51812 whole entry, species assumed): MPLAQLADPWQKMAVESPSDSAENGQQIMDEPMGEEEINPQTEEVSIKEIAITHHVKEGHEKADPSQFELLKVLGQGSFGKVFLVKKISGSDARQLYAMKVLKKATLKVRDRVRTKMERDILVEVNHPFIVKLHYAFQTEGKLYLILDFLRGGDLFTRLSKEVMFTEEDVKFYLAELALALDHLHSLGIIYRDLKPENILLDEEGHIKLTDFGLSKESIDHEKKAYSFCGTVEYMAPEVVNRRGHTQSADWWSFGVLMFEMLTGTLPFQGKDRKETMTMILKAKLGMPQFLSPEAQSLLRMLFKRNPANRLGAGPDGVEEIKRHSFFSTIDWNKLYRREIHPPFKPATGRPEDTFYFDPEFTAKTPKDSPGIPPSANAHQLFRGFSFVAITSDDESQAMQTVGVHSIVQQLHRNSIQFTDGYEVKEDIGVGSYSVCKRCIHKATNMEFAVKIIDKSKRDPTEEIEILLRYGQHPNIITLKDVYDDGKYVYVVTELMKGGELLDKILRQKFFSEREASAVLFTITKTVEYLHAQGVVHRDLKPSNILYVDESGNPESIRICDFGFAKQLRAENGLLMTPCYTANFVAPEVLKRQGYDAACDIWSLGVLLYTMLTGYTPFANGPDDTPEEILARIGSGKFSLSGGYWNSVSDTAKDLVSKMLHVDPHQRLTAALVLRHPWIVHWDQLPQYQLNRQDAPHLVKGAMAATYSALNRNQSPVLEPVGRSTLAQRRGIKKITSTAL
T3 sequence (P23443 whole entry): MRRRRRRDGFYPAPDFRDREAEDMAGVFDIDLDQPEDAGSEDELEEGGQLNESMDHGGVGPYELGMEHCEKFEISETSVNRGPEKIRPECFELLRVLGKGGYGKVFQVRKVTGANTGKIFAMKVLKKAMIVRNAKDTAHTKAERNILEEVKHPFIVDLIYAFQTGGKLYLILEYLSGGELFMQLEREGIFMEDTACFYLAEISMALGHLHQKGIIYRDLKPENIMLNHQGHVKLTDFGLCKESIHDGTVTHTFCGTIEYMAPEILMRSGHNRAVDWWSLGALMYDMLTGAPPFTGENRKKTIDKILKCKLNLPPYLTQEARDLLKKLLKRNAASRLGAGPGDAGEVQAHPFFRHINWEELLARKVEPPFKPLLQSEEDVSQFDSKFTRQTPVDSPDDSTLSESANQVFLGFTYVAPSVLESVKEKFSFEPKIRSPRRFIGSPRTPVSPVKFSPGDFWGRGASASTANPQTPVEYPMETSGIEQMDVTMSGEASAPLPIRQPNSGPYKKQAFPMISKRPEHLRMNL
Chain of CHK1 (O14757 whole entry, species assumed): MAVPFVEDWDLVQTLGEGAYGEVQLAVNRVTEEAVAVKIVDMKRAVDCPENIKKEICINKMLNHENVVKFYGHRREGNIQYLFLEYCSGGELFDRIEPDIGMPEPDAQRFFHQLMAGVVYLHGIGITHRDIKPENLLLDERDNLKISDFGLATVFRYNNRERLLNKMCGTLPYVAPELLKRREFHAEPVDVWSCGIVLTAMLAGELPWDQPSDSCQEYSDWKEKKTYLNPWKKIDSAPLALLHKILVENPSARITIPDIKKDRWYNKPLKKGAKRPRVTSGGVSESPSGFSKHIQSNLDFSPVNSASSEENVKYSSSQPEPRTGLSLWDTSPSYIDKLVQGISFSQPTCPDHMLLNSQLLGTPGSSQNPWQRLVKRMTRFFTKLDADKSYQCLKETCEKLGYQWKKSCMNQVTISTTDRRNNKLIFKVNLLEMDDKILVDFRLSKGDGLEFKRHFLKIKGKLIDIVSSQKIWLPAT
T2 sequence (Q9NYY3 whole entry): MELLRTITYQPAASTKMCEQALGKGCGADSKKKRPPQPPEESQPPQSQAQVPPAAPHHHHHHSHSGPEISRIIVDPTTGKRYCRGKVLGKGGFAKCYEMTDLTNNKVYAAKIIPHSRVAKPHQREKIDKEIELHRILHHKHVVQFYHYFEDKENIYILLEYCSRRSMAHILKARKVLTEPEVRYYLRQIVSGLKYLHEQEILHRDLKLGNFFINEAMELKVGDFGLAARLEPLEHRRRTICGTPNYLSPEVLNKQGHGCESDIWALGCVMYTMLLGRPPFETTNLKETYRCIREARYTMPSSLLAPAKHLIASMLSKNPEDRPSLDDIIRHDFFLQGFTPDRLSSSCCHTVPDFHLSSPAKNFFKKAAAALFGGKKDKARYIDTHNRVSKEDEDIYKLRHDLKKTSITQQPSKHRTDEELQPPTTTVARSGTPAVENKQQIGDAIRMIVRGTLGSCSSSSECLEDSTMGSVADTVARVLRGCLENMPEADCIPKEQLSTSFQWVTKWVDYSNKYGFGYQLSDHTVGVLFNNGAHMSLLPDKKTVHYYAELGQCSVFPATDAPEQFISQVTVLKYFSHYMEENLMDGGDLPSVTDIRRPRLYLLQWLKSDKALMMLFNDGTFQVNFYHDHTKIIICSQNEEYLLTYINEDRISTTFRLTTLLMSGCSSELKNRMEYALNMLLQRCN
T1 sequence (Q15418 whole entry): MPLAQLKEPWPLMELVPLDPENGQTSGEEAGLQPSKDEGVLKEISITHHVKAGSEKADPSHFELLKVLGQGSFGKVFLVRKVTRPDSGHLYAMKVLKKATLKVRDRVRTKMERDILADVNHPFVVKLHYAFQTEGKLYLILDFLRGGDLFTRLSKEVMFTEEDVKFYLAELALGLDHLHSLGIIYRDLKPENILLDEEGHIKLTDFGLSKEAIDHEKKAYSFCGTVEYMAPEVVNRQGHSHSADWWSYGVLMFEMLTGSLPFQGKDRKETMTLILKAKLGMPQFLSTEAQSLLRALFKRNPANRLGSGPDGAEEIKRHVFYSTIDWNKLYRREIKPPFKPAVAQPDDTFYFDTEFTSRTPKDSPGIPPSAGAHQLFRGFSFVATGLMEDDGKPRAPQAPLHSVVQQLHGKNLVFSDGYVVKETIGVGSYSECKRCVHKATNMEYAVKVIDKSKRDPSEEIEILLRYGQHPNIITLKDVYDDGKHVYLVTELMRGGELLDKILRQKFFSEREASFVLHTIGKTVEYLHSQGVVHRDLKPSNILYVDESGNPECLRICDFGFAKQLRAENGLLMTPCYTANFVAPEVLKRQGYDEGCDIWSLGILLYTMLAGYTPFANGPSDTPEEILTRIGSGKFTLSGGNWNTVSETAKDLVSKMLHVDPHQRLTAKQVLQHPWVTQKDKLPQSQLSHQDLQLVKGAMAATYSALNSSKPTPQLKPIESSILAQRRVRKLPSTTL
Chain of Aurora kinase B (Q96GD4 whole entry, species assumed): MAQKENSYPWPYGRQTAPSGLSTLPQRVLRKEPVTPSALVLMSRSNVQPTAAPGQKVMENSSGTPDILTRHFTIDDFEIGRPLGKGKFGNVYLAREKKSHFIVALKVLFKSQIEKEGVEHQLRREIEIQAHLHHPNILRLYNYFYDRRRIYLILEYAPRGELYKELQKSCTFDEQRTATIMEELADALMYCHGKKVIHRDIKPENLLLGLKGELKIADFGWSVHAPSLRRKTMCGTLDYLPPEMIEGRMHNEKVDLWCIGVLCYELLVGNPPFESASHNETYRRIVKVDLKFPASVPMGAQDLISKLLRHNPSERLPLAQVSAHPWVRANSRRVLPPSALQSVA

Question: Which GI50 (colon cell lines) does the source give for `Cc1cc(Nc2ncc3c(n2)N(C)C(=O)N(c2cc(NC(=O)c4cccc(C(F)(F)F)c4)ccc2C)C3)n(C)n1` [SC-1] here?
Answer: Its GI50 is 91 ± 70 nM.

Question: What about the “Inhibitory activity on kinase” value (CHK2) of the same molecule?
Answer: The value was “no effect”.

Question: What about the “Inhibitory activity on kinase” value (CHK1) of the same molecule?
Answer: Its value is “no effect”.

Question: What about the “Inhibitory activity on kinase” value (Aurora kinase B) of the same molecule?
Answer: The value was “no effect”.

Question: What about the “Fold Change from Initial Inocula” value (KM12) of the same molecule?
Answer: Its value is 20.6.

Question: And the “Fold Change from Initial Inocula” value (HT29 [1])?
Answer: Its value is 17.5.

Question: What about the “Fold Change from Initial Inocula” value (HCC-2998) of the same molecule?
Answer: Its value is 4.

Question: What about the “Fold Change from Initial Inocula” value (HCT-15) of the same molecule?
Answer: The value was 19.8.

Question: What about the “Fold Change from Initial Inocula” value (SW-620 [2]) of the same molecule?
Answer: The value was 27.5.

Question: What about the “Fold Change from Initial Inocula” value (HCT-116 [3]) of the same molecule?
Answer: Its value is 31.

Question: What about the “Fold Change from Initial Inocula” value (COLO 205) of the same molecule?
Answer: The value was 2.

Question: What about the “Cells expressing the CD133 glycosylated epitope” value (HT29 [4]; [7]) of the same molecule?
Answer: Its value is 27.6±3.6 % positive.

Question: What about the “Change in Surface Marker Expression” value (HT29 [4]; marker CD133+, summary of SC-1 effects) of the same molecule?
Answer: The value was “Y (CD133+)”.

Question: What about the CD44 subpopulation (SW-620 [5]; [7]) of the same molecule?
Answer: Its CD44 subpopulation is 74.1±13.4 % positive.

Question: And the “Change in Surface Marker Expression” value (SW-620 [5]; marker CD44+, summary of SC-1 effects)?
Answer: The value was “Y (CD44+)”.

Question: And the “CD44+ CD24- subpopulation” value (HCT-116 [6]; after SC-1 treatment)?
Answer: Its value is “increased”.

Question: What about the “Change in Surface Marker Expression” value (HCT-116 [6]; marker CD44+ CD24−, summary of SC-1 effects) of the same molecule?
Answer: The value was “Y (CD44+ CD24−)”.

Question: What about the IC50 (RSK1) of the same molecule?
Answer: The IC50 was 500 nM.

Question: And the IC50 (PLK2)?
Answer: Its IC50 is 2200 nM.

Question: And the IC50 (p70S6K)?
Answer: Its IC50 is 1400 nM.

Question: And the IC50 (RSK4)?
Answer: The IC50 was 10000 nM.

Question: And the IC50 (PIM1)?
Answer: The IC50 was ≥ 10000 nM.

Question: And the IC50 (RSK3)?
Answer: Its IC50 is 3300 nM.

Question: And the IC50 (Abl1)?
Answer: The IC50 was 5 nM.

Question: And the IC50 (RSK2)?
Answer: The IC50 was 2500 nM.
